Measured values from ChEMBL document CHEMBL1153666, “K-13 and of4949: Evaluation of key partial structures and pharmacophore delineation” (Bioorg Med Chem Lett, 1993).
Calls of active or inactive are those of the source. The rule behind the calls is not given here.

Tests used:
[1] = molecular target: T1, Angiotensin-converting enzyme (Oryctolagus cuniculus) (UniProt P12822); assay: Inhibition of Angiotensin I converting enzyme from rabbit lung acetone powder extract; Inactive
T1 sequence (whole entry): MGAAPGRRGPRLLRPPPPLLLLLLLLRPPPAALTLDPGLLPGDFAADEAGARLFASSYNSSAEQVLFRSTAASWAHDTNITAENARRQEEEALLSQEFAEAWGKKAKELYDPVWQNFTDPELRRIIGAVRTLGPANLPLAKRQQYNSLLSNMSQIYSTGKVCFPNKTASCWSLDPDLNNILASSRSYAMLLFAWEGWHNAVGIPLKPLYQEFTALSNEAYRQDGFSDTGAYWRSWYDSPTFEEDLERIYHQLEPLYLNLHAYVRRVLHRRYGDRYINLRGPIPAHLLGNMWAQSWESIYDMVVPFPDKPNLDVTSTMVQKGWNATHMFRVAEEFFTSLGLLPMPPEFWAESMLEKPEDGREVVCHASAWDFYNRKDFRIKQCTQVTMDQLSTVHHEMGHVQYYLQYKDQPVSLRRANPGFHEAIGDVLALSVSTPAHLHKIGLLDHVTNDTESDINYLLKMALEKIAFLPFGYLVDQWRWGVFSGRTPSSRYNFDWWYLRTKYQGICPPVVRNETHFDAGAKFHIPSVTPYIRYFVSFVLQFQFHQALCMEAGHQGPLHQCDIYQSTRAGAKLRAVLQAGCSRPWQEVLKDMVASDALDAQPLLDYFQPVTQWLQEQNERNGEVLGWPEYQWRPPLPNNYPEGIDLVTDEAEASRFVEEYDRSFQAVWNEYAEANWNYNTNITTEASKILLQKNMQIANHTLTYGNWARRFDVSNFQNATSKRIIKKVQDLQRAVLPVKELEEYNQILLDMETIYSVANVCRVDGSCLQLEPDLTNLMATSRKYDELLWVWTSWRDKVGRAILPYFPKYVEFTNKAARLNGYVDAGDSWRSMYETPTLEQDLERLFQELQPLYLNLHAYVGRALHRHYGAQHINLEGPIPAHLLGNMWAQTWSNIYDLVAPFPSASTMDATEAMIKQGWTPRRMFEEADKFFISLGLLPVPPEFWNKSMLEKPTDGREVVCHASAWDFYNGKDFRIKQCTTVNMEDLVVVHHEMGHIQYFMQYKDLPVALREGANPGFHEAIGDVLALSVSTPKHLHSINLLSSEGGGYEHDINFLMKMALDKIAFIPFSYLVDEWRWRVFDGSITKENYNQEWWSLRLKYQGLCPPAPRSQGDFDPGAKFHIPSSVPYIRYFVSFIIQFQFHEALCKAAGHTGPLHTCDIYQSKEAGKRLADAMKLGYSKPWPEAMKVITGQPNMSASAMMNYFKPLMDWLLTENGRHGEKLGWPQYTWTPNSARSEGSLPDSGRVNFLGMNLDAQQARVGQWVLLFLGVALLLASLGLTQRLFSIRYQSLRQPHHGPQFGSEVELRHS

[2] = molecular target: T2, Angiotensin-converting enzyme (Oryctolagus cuniculus, UniProt P12822); assay: Inhibitory concentration against Angiotensin I converting enzyme obtained from rabbit lung acetone powder extract; settings: read-out: I50 (converted)
T2 sequence (P12822 whole entry): T1 sequence (whole entry)

[3] = molecular target: T1, Angiotensin-converting enzyme (Oryctolagus cuniculus); assay: Tested for inhibitory concentration that causes inhibition of Angiotensin I converting enzyme obtained from rabbit lung acetone powder extract; settings: concentration not given here
Aminopeptidase B [4] = molecular target: T3, Aminopeptidase B (Rattus norvegicus, UniProt O09175); assay: Tested for concentration that causes 50% inhibition of rat liver aminopeptidase B, was determined; settings: read-out: I50 (converted)
T3 sequence (O09175 whole entry): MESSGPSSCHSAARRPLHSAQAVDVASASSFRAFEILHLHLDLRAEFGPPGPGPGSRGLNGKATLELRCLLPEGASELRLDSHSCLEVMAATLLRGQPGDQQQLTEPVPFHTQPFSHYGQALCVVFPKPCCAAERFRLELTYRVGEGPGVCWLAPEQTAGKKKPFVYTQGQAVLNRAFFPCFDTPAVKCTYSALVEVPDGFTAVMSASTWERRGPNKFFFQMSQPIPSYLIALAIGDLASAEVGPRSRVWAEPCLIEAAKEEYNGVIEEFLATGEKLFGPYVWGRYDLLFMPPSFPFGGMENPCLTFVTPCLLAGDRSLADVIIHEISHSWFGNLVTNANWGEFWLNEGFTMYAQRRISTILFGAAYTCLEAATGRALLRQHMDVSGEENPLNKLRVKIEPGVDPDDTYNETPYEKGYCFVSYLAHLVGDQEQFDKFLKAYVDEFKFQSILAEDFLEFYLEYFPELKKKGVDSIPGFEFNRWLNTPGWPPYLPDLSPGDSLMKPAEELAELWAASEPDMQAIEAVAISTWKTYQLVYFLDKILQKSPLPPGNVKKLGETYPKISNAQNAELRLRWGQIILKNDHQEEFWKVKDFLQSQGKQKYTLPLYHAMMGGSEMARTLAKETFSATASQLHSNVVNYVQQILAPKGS

[5] = molecular target: T1, Angiotensin-converting enzyme (Oryctolagus cuniculus); assay: Tested for percent inhibitory concentration that cause inhibition of Angiotensin I converting enzyme obtained from rabbit lung acetone powder extract at 100 ug/mL
P388 [6] = assay: Tested for concentration that causes 50% inhibition of P388 leukemic cell growth, was determined in vitro; format: functional, cell-based; settings: Mus musculus
[7] = molecular target: T2, Angiotensin-converting enzyme; assay: Tested for inhibitory concentration that causes inhibition of Angiotensin I converting enzyme obtained from rabbit lung acetone powder extract); settings: read-out: I50 (converted)
[8] = molecular target: T2, Angiotensin-converting enzyme; assay: Tested for inhibitory constant against Angiotensin I converting enzyme
[9] = molecular target: T4, Aminopeptidase B (Rattus norvegicus) (UniProt O09175); assay: Percent inhibition of rat liver aminopeptidase B by 230 ug/mL was determined
T4 sequence (whole entry): T3 sequence (O09175 whole entry)

P388 [10] = assay: Tested in vitro for concentration that causes 50% inhibition of P388 leukemic cell growth; format: functional, cell-based; settings: Mus musculus
Aminopeptidase B [11] = molecular target: T3, Aminopeptidase B; assay: Tested for concentration that causes 50% inhibition of rat liver aminopeptidase B, was determined; Inactive
[12] = molecular target: T1, Angiotensin-converting enzyme (Oryctolagus cuniculus); assay: Tested for percent inhibitory concentration that cause inhibition of Angiotensin I converting enzyme obtained from rabbit lung acetone powder extract at 200 ug/mL
[13] = molecular target: T4, Aminopeptidase B (Rattus norvegicus); assay: Tested for percent inhibitory concentration that cause inhibition of rat liver aminopeptidase B at 220 ug/mL

inhibition [1] | IC50 [2] | SMILES | also measured
inactive | – | CC(=O)N[C@@H](Cc1ccc(Oc2cc(C[C@H](NC(=O)[C@H](Cc3ccc(O)cc3)NC(=O)OC(C)(C)C)C(=O)O)ccc2OCc2ccccc2)cc1)C(=O)O | –
– | 198 µM | COC(=O)[C@@H]1Cc2ccc(cc2)Oc2cc(ccc2O)C[C@H](NC(=O)OCc2ccccc2)C(=O)N[C@@H](CC(N)=O)C(=O)N1 | –
inactive | – | COC(=O)CCc1ccc(O)c(Oc2ccc(CCNC(=O)[C@H](CC(N)=O)NC(=O)OC(C)(C)C)cc2)c1 | –
inactive | – | COC(=O)CCc1ccc(OC)c(Oc2ccc(CCNC(=O)[C@H](CC(N)=O)NC(=O)OC(C)(C)C)cc2)c1 | –
inactive | – | COC(=O)[C@H](Cc1ccc(O)c(Oc2ccc(C[C@H](NC(=O)[C@H](CC(N)=O)NC(=O)OC(C)(C)C)C(=O)OC)cc2)c1)NC(=O)OCc1ccccc1 | –
inactive | – | O=C1CCc2cccc(c2)Oc2ccc(cc2)CCNC(=O)CN1 | –
– | 11.2 µM | O=C1CCc2ccc(cc2)Oc2cc(ccc2O)CCNC(=O)[C@H](Cc2ccc(O)cc2)N1 | –
inactive | – | COC(=O)CCc1cccc(Oc2ccc(CCNC(=O)CNC(=O)OC(C)(C)C)cc2)c1 | –
inactive | – | NC(=O)C[C@@H]1NC(=O)CCc2cccc(c2)Oc2ccc(cc2)CCNC1=O | –
– | – | O=C1CCc2ccc(cc2)Oc2cccc(c2)CCNC(=O)[C@H](Cc2ccc(O)cc2)N1 | inhibition [3]: 10%
– | – | NC(=O)C[C@@H]1NC(=O)[C@@H](N)Cc2ccc(O)c(c2)Oc2ccc(cc2)C[C@@H](C(=O)O)NC1=O | IC50 (Aminopeptidase B [4]): 43.8 µM; inhibition [5]: 11%; IC50 (P388 [6]): > 10 µg/mL
– | – | CC(=O)N[C@@H]1Cc2ccc(cc2)Oc2cc(ccc2O)C[C@H](C(=O)O)NC(=O)[C@H](Cc2ccc(O)cc2)NC1=O | IC50 [7]: 0.183 µM; Ki [8]: 0.35 µM; inhibition [9]: 13%; IC50 (P388 [10]): > 10 µg/mL
– | 0.89 µM | COC(=O)[C@H]1Cc2ccc(O)c(c2)Oc2ccc(cc2)C[C@H](NC(C)=O)C(=O)N[C@@H](Cc2ccc(O)cc2)C(=O)N1 | –
inactive | – | O=C1CCc2ccc(O)c(c2)Oc2ccc(cc2)CCNC(=O)CN1 | –
– | 5.34 µM | COc1ccc2cc1Oc1ccc(cc1)C[C@H](NC(C)=O)C(=O)N[C@@H](Cc1ccc(O)cc1)C(=O)N[C@H](C(=O)O)C2 | –
inactive | – | COC(=O)[C@H](Cc1ccc(OCc2ccccc2)c(Oc2ccc(C[C@H](NC(=O)[C@H](CC(N)=O)NC(=O)OC(C)(C)C)C(=O)OC)cc2)c1)NC(=O)OCc1ccccc1 | –
– | 528 µM | NC(=O)C[C@@H]1NC(=O)CCc2ccc(O)c(c2)Oc2ccc(cc2)CCNC1=O | –
inactive | – | COC(=O)CCc1cccc(Oc2ccc(CCNC(=O)[C@H](CC(N)=O)NC(=O)OC(C)(C)C)cc2)c1 | –
– | 535 µM | COc1ccc2cc1Oc1ccc(cc1)CCNC(=O)[C@H](CC(N)=O)NC(=O)CC2 | –
– | – | N[C@@H](Cc1ccc(Oc2cc(C[C@H](N)C(=O)O)ccc2O)cc1)C(=O)O | I50 (Aminopeptidase B [11]): Not Active; IC50 (P388 [6]): > 10 µg/mL; inhibition [12]: 13%
– | – | COC(=O)[C@@H]1Cc2ccc(cc2)Oc2cc(ccc2OCc2ccccc2)C[C@H](NC(=O)OCc2ccccc2)C(=O)N[C@@H](CC(N)=O)C(=O)N1 | inhibition [13]: 14%
– | 210 µM | COC(=O)[C@@H]1Cc2ccc(cc2)Oc2cc(ccc2OC)C[C@H](NC(=O)OCc2ccccc2)C(=O)N[C@@H](CC(N)=O)C(=O)N1 | –
inactive | – | CC(C)(C)OC(=O)N[C@@H](Cc1ccc(Oc2cc(C[C@H](NC(=O)OCc3ccccc3)C(=O)O)ccc2OCc2ccccc2)cc1)C(=O)N[C@H](Cc1ccc(O)cc1)C(=O)O | –
– | 1.15 µM | COC(=O)[C@H]1Cc2ccc(O)c(c2)Oc2ccc(cc2)C[C@H](N)C(=O)N[C@@H](Cc2ccc(O)cc2)C(=O)N1 | –
– | 182 µM | COc1ccc2cc1Oc1ccc(cc1)C[C@@H](C(=O)O)NC(=O)[C@H](CC(N)=O)NC(=O)[C@@H](NC(=O)OCc1ccccc1)C2 | –

SMILES | inhibition [1] | IC50 [2] | also measured
COc1ccc2cc1Oc1ccc(cc1)C[C@@H](C(=O)O)NC(=O)[C@H](CC(N)=O)NC(=O)[C@@H](N)C2 | – | 149 µM | IC50 (P388 [6]): > 10 µg/mL
COC(=O)[C@@H]1Cc2ccc(cc2)Oc2cc(ccc2O)C[C@H](N)C(=O)N[C@@H](CC(N)=O)C(=O)N1 | – | 42.5 µM | –
